Data on 22 compounds can be found in patent US5132463A, “1,3-diaryl cyclopentanes and derivatives thereof as PAF antagonists” (Merck & Co., Inc., priority 1991, dated 1992).

By IC50 is commonly meant the concentration that inhibits the measured activity by half. The low end stands for higher potency, the high end for lower potency. The term inhibition denotes the relative decrease from the control value, in per cent.

Structures are written as SMILES. “And” between values parts separate entries of the source, which are not always exact repeats. Identical values can stand only once.

T1 sequence (G1TEI7 1-342): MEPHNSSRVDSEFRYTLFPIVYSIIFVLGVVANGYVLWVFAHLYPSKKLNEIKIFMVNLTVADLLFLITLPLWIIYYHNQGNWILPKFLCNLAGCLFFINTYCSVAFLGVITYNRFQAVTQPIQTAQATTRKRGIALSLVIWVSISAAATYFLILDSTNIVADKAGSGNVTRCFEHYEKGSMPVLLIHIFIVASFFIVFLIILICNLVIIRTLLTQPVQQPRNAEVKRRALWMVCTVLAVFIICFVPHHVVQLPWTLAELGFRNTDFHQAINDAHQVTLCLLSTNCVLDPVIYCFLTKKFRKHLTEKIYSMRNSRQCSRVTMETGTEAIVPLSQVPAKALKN

The first assay has as its target T1, PAF receptor (specific receptor binding site on rabbit platelet plasma membranes) (Oryctolagus cuniculus, UniProt G1TEI7).
T1 construct: 100 μg of the platelet plasma membrane suspension; from tissue; host or cells: rabbit platelet plasma membranes
Put plainly: inhibition of 3H-PAF binding to rabbit platelet plasma membrane. The following applies: Table (A), 3H-PAF, pH 7.5, 0° C. As for the experimental part: They inhibit in vitro PAF-induced functions in both the cellular and tissue levels by changing the PAF binding to its specific receptor site. This ability to inhibit the PAF binding to its specific receptor binding site on rabbit platelet plasma membranes was measured by an assay recently developed by us.
The inhibition of H^3 -PAF binding to the rabbit platelet plasma membrane by a PAF antagonist of Formula (I) was determined by isotopic labeling and filtration techniques. Generally, a series of Tris-buffered solutions of the selected antagonist at predetermined concentrations were prepared. Each of these solutions contains 1 pmole of ^3 H-PAF, a known amount of the test antagonist, and a sufficient amount of the pH 7.5 Tris-buffer solution (10 mM Tris, 0.25% bovine serum albumin, and 150 mM NaCl per ml water) to make the final volume of 1 ml. After adding into a set of test tubes each with 100 μg of the platelet plasma membrane suspension (S. B. Hwang, et al., Biochemistry, Vol. 22, pp. 4756-4763, 1983) and one of the Tris-buffer solutions described above, the resulting mixture in each test tube was incubated at 0° C. for about one hour or until the reaction was complete. Two control samples, one of which (C1) contains all the ingredients described above except the antagonist and the other (C 2) contains C1 plus a 1000-fold excess of unlabeled PAF, were also prepared and incubated simultaneously with the test samples. After the incubation was completed, the contents of each test tube were filtered under vacuo through a Whatman GF/C fiberglass filter and the residue washed rapidly several times with a total of 20 ml cold (0°-5° C.) Tris-buffer solution. Each washed residue was then suspended in 10 ml scintillation solution (Aquasol 2, New England Nuclear, Conn.) and the radioactivity was counted in a Packard Tri-Carb 460CD Liquid Scintillation System. Defining the counts from a test sample as "Total binding with antagonist"; the counts from the control sample C1, as "Total binding C1 "; and the counts from the control sample C2 as "non-specific binding C2 ", the percent inhibition of each test antagonist can be determined by the following equation: [formula]
In the case of `COc1cc([C@@H]2CC[C@@H](c3cc(OC)c(OC)c(OC)c3)C2)cc(OC)c1OC` (relative stereo) [H, 1α,3β-bis(3,4,5-trimethoxyphenyl)cyclopentane], the half-inhibitory concentration (IC50) was 20 nM.
On the same count and under the same terms, the figure for `COc1cc([C@@H]2CC[C@@H](c3cc(OC)c(OC)c(OC)c3)C2OC(C)=O)cc(OC)c1OC` (relative stereo) [OCOCH3, 1α-acetoxy-2α,5β-bis(3,4,5-trimethoxypheny)cyclopentane] is 100 nM; for `COc1cc([C@@H]2CC[C@@H](c3cc(OC)c(OC)c(OC)c3)C2OCC2CC2)cc(OC)c1OC` (relative stereo) it is 19 nM; for `COc1cc([C@@H]2CC[C@@H](c3cc(OC)c(OC)c(OC)c3)C2OCc2ccccc2)cc(OC)c1OC` (relative stereo) [OCH2 C6 H5] it is 48 nM.
Still for that read-out and setting: the figure for `CCCOC1[C@H](c2cc(OC)c(OC)c(OC)c2)CC[C@H]1c1cc(OC)c(OC)c(OC)c1` (relative stereo) is 30 nM.
The compound `COc1cc([C@@H]2CC[C@@H](c3cc(OC)c(OC)c(OC)c3)C2OCCN(C)C)cc(OC)c1OC` (relative stereo) registered an IC50 of 100 nM.
Same read-out and setting: the figure for `COc1cc([C@@H]2CC[C@@H](c3cc(OC)c(OC)c(OC)c3)C2OC)cc(OC)c1OC` (relative stereo) [OCH3, 1α-Methoxy-2α,5β-bis-(3,4,5-trimethoxyphenyl)cyclopentane] is 8.3 nM; for `C=CCOC1[C@H](c2cc(OC)c(OC)c(OC)c2)CC[C@H]1c1cc(OC)c(OC)c(OC)c1` (relative stereo) it is 4.8 nM.
As to `COCCOC1[C@H](c2cc(OC)c(OC)c(OC)c2)CC[C@H]1c1cc(OC)c(OC)c(OC)c1` (relative stereo), the IC50 is 100 nM.
On the same count and under the same terms, the value for `CON=C1[C@@H](c2cc(OC)c(OC)c(OC)c2)CC[C@@H]1c1cc(OC)c(OC)c(OC)c1` (relative stereo) [NOCH3, Trans-2,5-bis(3,4,5-trimethoxyphenyl)cyclopentanone-O-methyloxime] was 5 nM; that for `C#CCOC1[C@H](c2cc(OC)c(OC)c(OC)c2)CC[C@H]1c1cc(OC)c(OC)c(OC)c1` (relative stereo) was 1 nM.
Still for that read-out and setting: the figure for `CCOC1[C@H](c2cc(OC)c(OC)c(OC)c2)CC[C@H]1c1cc(OC)c(OC)c(OC)c1` (relative stereo) is 30 nM.
Same read-out and setting: the value for `CCOC(=O)COC1[C@H](c2cc(OC)c(OC)c(OC)c2)CC[C@H]1c1cc(OC)c(OC)c(OC)c1` (relative stereo) was 3.6 nM; that for `COc1cc([C@H]2CC[C@H](c3cc(OC)c(OC)c(OC)c3)C2=NO)cc(OC)c1OC` (relative stereo) [NOH, trans-2,5-bis(3,4,5-trimethoxyphenyl)cyclopentanone oxime] was 5.8 nM.

Still in this assay, the particulars now being: Table (A), at 300 nM, read-out: PAF Receptor Binding Inhibition, Percent Inhibition.
For the compound `COc1cc([C@@H]2CC[C@@H](c3cc(OC)c(OC)c(OC)c3)C2OCC(=O)N(C)C)cc(OC)c1OC` (relative stereo), the inhibition at 0.3 µM turned out to be 23%.
Take `COc1cc([C@@H]2CC[C@@H](c3cc(OC)c(OC)c(OC)c3)C2OCC(=O)O)cc(OC)c1OC` (relative stereo): the inhibition at 0.3 µM amounted to 16%.

Still in this assay, the particulars now being: Table (A), at 500 nM, read-out: PAF Receptor Binding Inhibition, Percent Inhibition.
In the case of `COc1cc([C@@H]2CC[C@@H](c3cc(OC)c(OC)c(OC)c3)C2O)cc(OC)c1OC` (relative stereo) [OH, trans-2,5-bis(3,4,5-trimethoxyphenyl)cyclopentanol], the inhibition at 0.5 µM came out at 84%.

The same assay, now with this note: Table (B), 3H-PAF, pH 7.5, 0° C.
Consider `CCCOc1c(OC)cc([C@H]2CC[C@H](c3cc(OC)c(OC)c(OC)c3)[C@@H]2OC)cc1C(N)=O` (relative stereo) [OCH3, (CO)NH2], for which the IC50 is 124 nM and 47 nM.
Same read-out and setting: the figure for `CCCOc1c(Br)cc([C@@H]2CC[C@@H](c3cc(OC)c(OC)c(OC)c3)[C@H]2OC)cc1OC` (relative stereo) [OCH3, Br] is 47 nM; for `CCCOc1c(OC)cc([C@@H]2CC[C@@H](c3cc(OC)c(OC)c(OC)c3)[C@@H]2OC)cc1[S+](C)[O-]` (relative stereo) [OCH3, SOCH3] it is 18 nM and 9.3 nM; for `CCCOc1c(OC)cc([C@@H]2CC[C@@H](c3cc(OC)c(OC)c(OC)c3)[C@@H]2OC)cc1S(C)(=O)=O` (relative stereo) [OCH3, SO2 CH3] it is 4.3 nM and 3.8 nM.

The same assay, now with this note: Table (B), at 300 nM, 0.3 µM.
In the case of `CCCOc1c(OC)cc([C@@H]2CC[C@@H](c3cc(OC)c(OC)c(OC)c3)[C@@H]2O)cc1SC` (relative stereo) [OH, SCH3], the “PAF Receptor Binding Inhibition, Percent Inhibition” value is listed as 38%.

The assay is the same for the next values; noted with them: Table (B), at 300 nM, read-out: PAF Receptor Binding Inhibition, Percent Inhibition.
For the compound `CCCOc1c(OC)cc([C@@H]2CC[C@@H](c3cc(OC)c(OC)c(OC)c3)[C@@H]2O)cc1SC` (relative stereo) [OH, SCH3], the inhibition at 0.3 µM is 23%.
